From US20090105270A1, “Kinase inhibition and anticancer therapy” (priority 2007, published 2009)

Assays:
[1] = biological target: MLCK(h) (Homo sapiens, UniProt Q9H1R3); experiment: Upstate kinase activity inhibition assay MLCK(h); settings: 40 min, read-out: percentage of enzyme activity that remains
[2] = biological target: Fms(h) (Homo sapiens, UniProt P07333); experiment: Upstate kinase activity inhibition assay Fms(h); settings: 40 min, read-out: percentage of enzyme activity that remains
[3] = biological target: CHK2(h) (Homo sapiens, UniProt O96017); experiment: Upstate kinase activity inhibition assay CHK2(h); settings: 40 min, read-out: percentage of enzyme activity that remains
[4] = biological target: T1, MRCKβ(h) (Homo sapiens, UniProt Q9Y5S2); experiment: Upstate kinase activity inhibition assay MRCKβ(h); assay type: biochemical; settings: 40 min; read-out: percentage of enzyme activity that remains
T1 construct: purchased Upstate (KinaseProfiler service)

[5] = biological target: ROCK-II(h) (Homo sapiens, UniProt O75116); experiment: Upstate kinase activity inhibition assay ROCK-II(h); settings: 40 min, read-out: percentage of enzyme activity that remains
[6] = biological target: T2, JNK3(h) (Homo sapiens, UniProt P53779); experiment: Upstate kinase activity inhibition assay JNK3(h); assay type: biochemical
T2 construct: purchased Upstate (KinaseProfiler service)

[7] = biological target: Fgr(h) (Homo sapiens, UniProt P09769); experiment: Upstate kinase activity inhibition assay Fgr(h); settings: 40 min, read-out: percentage of enzyme activity that remains
[8] = biological target: T3, PDGFRβ(h) (Homo sapiens, UniProt P09619); experiment: Upstate kinase activity inhibition assay PDGFRβ(h); assay type: biochemical; settings: 40 min; read-out: percentage of enzyme activity that remains
T3 construct: purchased Upstate (KinaseProfiler service)
T3 sequence (P09619 33-1106): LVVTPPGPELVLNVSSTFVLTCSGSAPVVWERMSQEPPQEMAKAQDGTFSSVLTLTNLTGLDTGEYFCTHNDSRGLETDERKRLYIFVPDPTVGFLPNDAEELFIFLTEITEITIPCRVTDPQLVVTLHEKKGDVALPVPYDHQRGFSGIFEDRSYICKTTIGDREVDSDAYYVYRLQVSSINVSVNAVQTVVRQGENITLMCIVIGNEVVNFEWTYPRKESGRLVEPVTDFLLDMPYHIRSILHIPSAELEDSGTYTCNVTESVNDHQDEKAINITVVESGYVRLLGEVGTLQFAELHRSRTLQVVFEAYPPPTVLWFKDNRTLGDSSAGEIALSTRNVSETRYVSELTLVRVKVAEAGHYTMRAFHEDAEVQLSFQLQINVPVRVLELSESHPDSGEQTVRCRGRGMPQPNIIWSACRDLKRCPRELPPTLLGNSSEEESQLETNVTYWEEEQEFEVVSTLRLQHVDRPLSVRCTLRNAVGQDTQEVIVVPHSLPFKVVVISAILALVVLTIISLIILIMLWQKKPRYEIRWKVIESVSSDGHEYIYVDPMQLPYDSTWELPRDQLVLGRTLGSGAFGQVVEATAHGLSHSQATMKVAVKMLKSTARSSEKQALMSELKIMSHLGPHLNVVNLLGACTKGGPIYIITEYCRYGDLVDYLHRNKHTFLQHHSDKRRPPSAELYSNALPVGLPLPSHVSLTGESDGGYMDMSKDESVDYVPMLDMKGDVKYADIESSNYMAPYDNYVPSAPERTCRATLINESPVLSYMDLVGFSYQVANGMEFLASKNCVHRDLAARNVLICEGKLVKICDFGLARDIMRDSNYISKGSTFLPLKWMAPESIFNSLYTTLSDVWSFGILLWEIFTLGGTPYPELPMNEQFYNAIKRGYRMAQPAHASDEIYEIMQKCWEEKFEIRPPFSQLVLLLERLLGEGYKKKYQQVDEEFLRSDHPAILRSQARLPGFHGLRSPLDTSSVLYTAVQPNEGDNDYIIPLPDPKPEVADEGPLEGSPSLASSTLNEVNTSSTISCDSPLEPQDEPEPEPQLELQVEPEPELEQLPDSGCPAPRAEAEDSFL

[9] = biological target: T4, Mnk2(h) (Homo sapiens, UniProt Q9HBH9); experiment: Upstate kinase activity inhibition assay Mnk2(h); assay type: biochemical; settings: 40 min; read-out: percentage of enzyme activity that remains
T4 construct: purchased Upstate (KinaseProfiler service)

[10] = biological target: ROCK-I(h) (Homo sapiens, UniProt Q13464); experiment: Upstate kinase activity inhibition assay ROCK-I(h); settings: 40 min, read-out: percentage of enzyme activity that remains
[11] = biological target: T5, Lyn(h) (Homo sapiens, UniProt P07948); experiment: Upstate kinase activity inhibition assay Lyn(h); assay type: biochemical; settings: 40 min; read-out: percentage of enzyme activity that remains
T5 construct: purchased Upstate (KinaseProfiler service)

[12] = biological target: DMPK(h) (Homo sapiens, UniProt Q09013); experiment: Upstate kinase activity inhibition assay DMPK(h); settings: 40 min, read-out: percentage of enzyme activity that remains
[13] = biological target: MRCKα(h) (Homo sapiens, UniProt Q5VT25); experiment: Upstate kinase activity inhibition assay MRCKα(h); settings: 40 min, read-out: percentage of enzyme activity that remains
Chain of MRCKα(h) (Q5VT25 whole entry): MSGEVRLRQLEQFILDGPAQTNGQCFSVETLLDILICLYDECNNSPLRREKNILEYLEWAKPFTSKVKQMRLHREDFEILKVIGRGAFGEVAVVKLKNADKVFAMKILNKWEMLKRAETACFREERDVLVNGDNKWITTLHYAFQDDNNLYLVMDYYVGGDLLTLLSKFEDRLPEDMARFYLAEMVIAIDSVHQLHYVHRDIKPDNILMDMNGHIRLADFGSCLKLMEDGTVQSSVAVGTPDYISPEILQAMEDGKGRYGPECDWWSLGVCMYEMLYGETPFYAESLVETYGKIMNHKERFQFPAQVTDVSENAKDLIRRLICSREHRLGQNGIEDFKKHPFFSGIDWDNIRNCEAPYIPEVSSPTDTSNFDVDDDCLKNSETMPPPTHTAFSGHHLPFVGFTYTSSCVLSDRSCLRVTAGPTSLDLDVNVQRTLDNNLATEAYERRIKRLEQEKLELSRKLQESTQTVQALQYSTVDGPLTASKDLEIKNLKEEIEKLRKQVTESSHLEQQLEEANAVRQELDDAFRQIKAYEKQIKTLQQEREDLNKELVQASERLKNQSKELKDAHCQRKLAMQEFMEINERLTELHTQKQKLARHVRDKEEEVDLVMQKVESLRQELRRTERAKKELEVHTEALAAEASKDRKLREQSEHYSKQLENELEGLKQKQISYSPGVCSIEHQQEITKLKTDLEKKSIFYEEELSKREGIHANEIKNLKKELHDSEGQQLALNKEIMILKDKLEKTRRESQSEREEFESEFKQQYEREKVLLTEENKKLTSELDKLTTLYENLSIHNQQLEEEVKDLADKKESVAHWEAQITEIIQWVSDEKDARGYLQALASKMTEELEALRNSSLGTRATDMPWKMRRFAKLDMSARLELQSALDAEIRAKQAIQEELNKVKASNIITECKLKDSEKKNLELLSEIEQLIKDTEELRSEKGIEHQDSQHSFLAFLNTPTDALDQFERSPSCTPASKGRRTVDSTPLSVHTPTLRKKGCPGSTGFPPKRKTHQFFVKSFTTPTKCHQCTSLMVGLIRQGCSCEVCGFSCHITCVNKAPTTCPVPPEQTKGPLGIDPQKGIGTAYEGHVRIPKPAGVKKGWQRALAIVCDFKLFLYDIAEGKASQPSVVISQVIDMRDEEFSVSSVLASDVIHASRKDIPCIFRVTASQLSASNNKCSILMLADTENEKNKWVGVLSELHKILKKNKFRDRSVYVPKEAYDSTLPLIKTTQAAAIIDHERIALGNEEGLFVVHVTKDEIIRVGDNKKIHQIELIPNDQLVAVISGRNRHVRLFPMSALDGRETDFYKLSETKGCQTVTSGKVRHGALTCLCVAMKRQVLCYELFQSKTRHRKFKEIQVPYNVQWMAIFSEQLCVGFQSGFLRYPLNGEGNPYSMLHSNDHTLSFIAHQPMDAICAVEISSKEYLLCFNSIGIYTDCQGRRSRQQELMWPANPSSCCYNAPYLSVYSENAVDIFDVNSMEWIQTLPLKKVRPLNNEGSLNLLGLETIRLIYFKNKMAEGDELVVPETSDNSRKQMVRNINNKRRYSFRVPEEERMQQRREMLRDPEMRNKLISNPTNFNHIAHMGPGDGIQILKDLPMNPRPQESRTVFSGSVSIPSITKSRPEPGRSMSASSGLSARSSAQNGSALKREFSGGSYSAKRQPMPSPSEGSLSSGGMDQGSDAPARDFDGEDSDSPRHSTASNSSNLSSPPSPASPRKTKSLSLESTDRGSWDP

[14] = biological target: MKK7β(h) (Homo sapiens, UniProt O14733); experiment: Upstate kinase activity inhibition assay MKK7β(h)
[15] = biological target: LOK(h) (Homo sapiens, UniProt O94804); experiment: Upstate kinase activity inhibition assay LOK(h)
Chain of LOK(h) (O94804 whole entry): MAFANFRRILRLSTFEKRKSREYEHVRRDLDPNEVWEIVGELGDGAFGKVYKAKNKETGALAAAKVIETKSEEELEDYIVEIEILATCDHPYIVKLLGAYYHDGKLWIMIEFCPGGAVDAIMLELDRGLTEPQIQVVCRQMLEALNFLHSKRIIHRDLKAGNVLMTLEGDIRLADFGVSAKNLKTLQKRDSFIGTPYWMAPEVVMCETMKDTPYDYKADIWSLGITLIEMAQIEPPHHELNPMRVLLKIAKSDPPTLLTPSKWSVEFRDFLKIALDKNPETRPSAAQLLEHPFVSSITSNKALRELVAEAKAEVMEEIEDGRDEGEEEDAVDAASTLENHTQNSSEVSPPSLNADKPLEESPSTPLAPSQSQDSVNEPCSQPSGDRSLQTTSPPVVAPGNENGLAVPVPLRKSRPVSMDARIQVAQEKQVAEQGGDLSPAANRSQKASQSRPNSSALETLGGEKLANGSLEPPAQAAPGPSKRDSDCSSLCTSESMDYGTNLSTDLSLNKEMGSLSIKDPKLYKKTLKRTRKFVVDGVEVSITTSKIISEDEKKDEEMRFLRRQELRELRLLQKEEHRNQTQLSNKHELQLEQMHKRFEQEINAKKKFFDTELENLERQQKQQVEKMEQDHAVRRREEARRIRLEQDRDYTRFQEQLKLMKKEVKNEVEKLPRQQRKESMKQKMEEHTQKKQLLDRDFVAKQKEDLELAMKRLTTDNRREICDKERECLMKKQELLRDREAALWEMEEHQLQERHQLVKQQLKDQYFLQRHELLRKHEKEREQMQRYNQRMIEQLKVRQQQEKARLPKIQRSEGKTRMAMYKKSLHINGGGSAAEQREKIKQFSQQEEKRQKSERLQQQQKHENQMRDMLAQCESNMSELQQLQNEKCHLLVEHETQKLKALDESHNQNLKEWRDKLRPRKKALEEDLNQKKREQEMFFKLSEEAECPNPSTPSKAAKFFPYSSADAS

[16] = biological target: T6, CDK3/cyclinE(h) (Homo sapiens, UniProt Q00526); experiment: Upstate kinase activity inhibition assay CDK3/cyclinE(h); assay type: biochemical; settings: 4 μM Compound E
T6 construct: purchased Upstate (KinaseProfiler service)

[17] = biological target: T7, Ros(h) (Homo sapiens, UniProt P08922); experiment: Upstate kinase activity inhibition assay Ros(h); assay type: biochemical; settings: 40 min; read-out: percentage of enzyme activity that remains
T7 construct: purchased Upstate (KinaseProfiler service)

[18] = biological target: Met(h) (Homo sapiens, UniProt P08581); experiment: Upstate kinase activity inhibition assay Met(h)
Chain of Met(h) (P08581 25-1390): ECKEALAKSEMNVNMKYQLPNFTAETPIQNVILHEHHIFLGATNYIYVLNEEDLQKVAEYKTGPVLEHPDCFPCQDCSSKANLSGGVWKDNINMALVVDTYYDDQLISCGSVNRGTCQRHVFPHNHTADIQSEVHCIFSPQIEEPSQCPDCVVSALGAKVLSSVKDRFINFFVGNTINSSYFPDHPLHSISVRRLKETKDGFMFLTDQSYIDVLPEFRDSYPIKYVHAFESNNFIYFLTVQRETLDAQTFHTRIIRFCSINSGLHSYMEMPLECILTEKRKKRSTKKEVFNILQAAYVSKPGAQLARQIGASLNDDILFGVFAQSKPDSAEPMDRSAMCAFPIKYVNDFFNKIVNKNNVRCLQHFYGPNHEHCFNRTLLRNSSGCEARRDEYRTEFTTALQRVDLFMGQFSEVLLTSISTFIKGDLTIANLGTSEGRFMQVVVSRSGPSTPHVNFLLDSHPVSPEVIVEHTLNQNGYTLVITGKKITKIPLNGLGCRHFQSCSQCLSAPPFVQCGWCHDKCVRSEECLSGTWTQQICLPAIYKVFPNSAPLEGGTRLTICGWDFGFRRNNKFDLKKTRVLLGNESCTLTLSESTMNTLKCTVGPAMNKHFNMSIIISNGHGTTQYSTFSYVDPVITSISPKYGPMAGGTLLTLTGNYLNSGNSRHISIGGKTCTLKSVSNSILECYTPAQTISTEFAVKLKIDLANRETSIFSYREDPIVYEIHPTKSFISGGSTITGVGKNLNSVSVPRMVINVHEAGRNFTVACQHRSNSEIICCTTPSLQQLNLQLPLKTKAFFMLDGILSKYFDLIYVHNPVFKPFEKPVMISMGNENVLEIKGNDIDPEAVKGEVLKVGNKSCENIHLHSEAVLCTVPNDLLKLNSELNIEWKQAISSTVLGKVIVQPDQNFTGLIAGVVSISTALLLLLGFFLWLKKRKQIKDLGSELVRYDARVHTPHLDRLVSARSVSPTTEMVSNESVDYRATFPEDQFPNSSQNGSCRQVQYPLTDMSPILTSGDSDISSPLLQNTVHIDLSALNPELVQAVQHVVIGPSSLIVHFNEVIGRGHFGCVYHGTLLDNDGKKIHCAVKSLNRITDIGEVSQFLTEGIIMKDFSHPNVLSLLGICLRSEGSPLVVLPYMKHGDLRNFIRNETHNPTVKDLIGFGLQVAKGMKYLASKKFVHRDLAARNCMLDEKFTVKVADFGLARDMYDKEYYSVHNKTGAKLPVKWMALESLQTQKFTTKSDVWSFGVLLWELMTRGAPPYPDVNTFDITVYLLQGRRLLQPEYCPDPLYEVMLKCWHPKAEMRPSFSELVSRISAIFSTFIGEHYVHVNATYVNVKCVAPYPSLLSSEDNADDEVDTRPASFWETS

[19] = biological target: MSSK1(h) (Homo sapiens, UniProt Q9UPE1); experiment: Upstate kinase activity inhibition assay MSSK1(h); settings: 40 min, read-out: percentage of enzyme activity that remains
[20] = biological target: Pim-1(h) (Homo sapiens, UniProt P11309); experiment: Upstate kinase activity inhibition assay Pim-1(h); assay type: biochemical; settings: 40 min; read-out: percentage of enzyme activity that remains
[21] = biological target: MEK1(h) (Homo sapiens, UniProt Q02750); experiment: Upstate kinase activity inhibition assay MEK1(h); settings: 40 min, read-out: percentage of enzyme activity that remains
[22] = biological target: PAK4(h) (Homo sapiens, UniProt O96013); experiment: Upstate kinase activity inhibition assay PAK4(h); settings: 40 min, read-out: percentage of enzyme activity that remains
[23] = biological target: Syk(h) (Homo sapiens, UniProt P43405); experiment: Upstate kinase activity inhibition assay Syk(h)
[24] = biological target: T8, IKKα(h) (Homo sapiens, UniProt O15111); experiment: Upstate kinase activity inhibition assay IKKα(h); assay type: biochemical; settings: 40 min; read-out: percentage of enzyme activity that remains
T8 construct: purchased Upstate (KinaseProfiler service)

[25] = biological target: SAPK2a(h) (Homo sapiens, UniProt Q16539); experiment: Upstate kinase activity inhibition assay SAPK2a(h)
[26] = biological target: PKBβ(h) (Homo sapiens, UniProt P31751); experiment: Upstate kinase activity inhibition assay PKBβ(h); settings: 40 min, read-out: percentage of enzyme activity that remains
[27] = biological target: T9, DYRK2(h) (Homo sapiens, UniProt Q92630); experiment: Upstate kinase activity inhibition assay DYRK2(h); assay type: biochemical; settings: 40 min; read-out: percentage of enzyme activity that remains
T9 construct: purchased Upstate (KinaseProfiler service)

[28] = biological target: T10, Hck(h) (Homo sapiens, UniProt P08631); experiment: Upstate kinase activity inhibition assay Hck(h); assay type: biochemical; settings: 40 min; read-out: percentage of enzyme activity that remains
T10 construct: purchased Upstate (KinaseProfiler service)

[29] = biological target: CaMKIV(h) (Homo sapiens, UniProt Q16566); experiment: Upstate kinase activity inhibition assay CaMKIV(h); settings: 40 min, read-out: percentage of enzyme activity that remains
[30] = biological target: IRAK1(h) (Homo sapiens, UniProt P51617); experiment: Upstate kinase activity inhibition assay IRAK1(h); settings: 40 min, read-out: percentage of enzyme activity that remains

## Cc1cc(Nc2cc(N3CCN(C)CC3)nc(Sc3ccc(NC(=O)C4CC4)cc3)n2)n[nH]1 [Compound E, Cyclopropane carboxylic acid {4-[4-(4-methyl-piperazin-1-yl)-6-(5-methyl-2H-pyrazol-3-ylamino)-pyrimidin-2-ylsulphanyl]-phenyl}-amide]
[1]
  remaining activity at 0.2 µM: 95%
  remaining activity at 4 µM: 88%
[2]
  remaining activity at 0.2 µM: 139%
  remaining activity at 4 µM: 54%
[3]
  remaining activity at 0.2 µM: 99%
  remaining activity at 4 µM: 89%
[4]
  remaining activity at 4 µM: 100%
[5]
  remaining activity at 0.2 µM: 93%
  remaining activity at 4 µM: 106%
[6]; 0.2 μM Compound E
  percentage of enzyme activity that remains: 94%
[6]; 4 μM Compound E
  percentage of enzyme activity that remains: 69%
[7]
  remaining activity at 0.2 µM: 71%
  remaining activity at 4 µM: 12%
[8]
  remaining activity at 0.2 µM: 102%
  remaining activity at 4 µM: 90%
[9]
  remaining activity at 4 µM: 96%
[10]
  remaining activity at 0.2 µM: 99%
  remaining activity at 4 µM: 91%
[11]
  remaining activity at 0.2 µM: 45%
  remaining activity at 4 µM: 3%
[12]
  remaining activity at 0.2 µM: 95%
  remaining activity at 4 µM: 103%
[13]
  remaining activity at 0.2 µM: 96%
  remaining activity at 4 µM: 99%
[14]; 0.2 μM Compound E
  percentage of enzyme activity that remains: 91%
[14]; 4 μM Compound E
  percentage of enzyme activity that remains: 97%
[15]; 0.2 μM Compound E
  percentage of enzyme activity that remains: 92%
[15]; 4 μM Compound E
  percentage of enzyme activity that remains: 37%
[16]
  percentage of enzyme activity that remains: 97%
[17]
  remaining activity at 4 µM: 80%
[18]; 0.2 μM Compound E
  percentage of enzyme activity that remains: 105%
[18]; 4 μM Compound E
  percentage of enzyme activity that remains: 50%
[19]
  remaining activity at 0.2 µM: 110%
  remaining activity at 4 µM: 108%
[20]
  remaining activity at 0.2 µM: 102%
  remaining activity at 4 µM: 103%
[21]
  remaining activity at 0.2 µM: 115%
  remaining activity at 4 µM: 82%
[22]
  remaining activity at 0.2 µM: 85%
  remaining activity at 4 µM: 75%
[23]; 0.2 μM Compound E
  percentage of enzyme activity that remains: 113%
[23]; 4 μM Compound E
  percentage of enzyme activity that remains: 63%
[24]
  remaining activity at 0.2 µM: 103%
  remaining activity at 4 µM: 99%
[25]; 0.2 μM Compound E
  percentage of enzyme activity that remains: 116%
[25]; 4 μM Compound E
  percentage of enzyme activity that remains: 123%
[26]
  remaining activity at 0.2 µM: 105%
  remaining activity at 4 µM: 85%
[27]
  remaining activity at 0.2 µM: 100%
  remaining activity at 4 µM: 110%
[28]
  remaining activity at 0.2 µM: 98%
  remaining activity at 4 µM: 45%
[29]
  remaining activity at 0.2 µM: 100%
  remaining activity at 4 µM: 99%
[30]
  remaining activity at 0.2 µM: 107%
  remaining activity at 4 µM: 108%
